The values that follow come from US12459967B2, “Modulators of 5′-nucleotidase, ecto and the use thereof” (Arcus Biosciences, Inc., priority 2016, dated 2025).

As a reminder, the IC50 is the point on the concentration scale where inhibition reaches its midpoint.

This assay addresses T1, human CD73 (Homo sapiens, UniProt P21589).
T1 construct: host or cells: CHO-K1 (suspension pool CHO-CD73)
T1 sequence (P21589 27-549): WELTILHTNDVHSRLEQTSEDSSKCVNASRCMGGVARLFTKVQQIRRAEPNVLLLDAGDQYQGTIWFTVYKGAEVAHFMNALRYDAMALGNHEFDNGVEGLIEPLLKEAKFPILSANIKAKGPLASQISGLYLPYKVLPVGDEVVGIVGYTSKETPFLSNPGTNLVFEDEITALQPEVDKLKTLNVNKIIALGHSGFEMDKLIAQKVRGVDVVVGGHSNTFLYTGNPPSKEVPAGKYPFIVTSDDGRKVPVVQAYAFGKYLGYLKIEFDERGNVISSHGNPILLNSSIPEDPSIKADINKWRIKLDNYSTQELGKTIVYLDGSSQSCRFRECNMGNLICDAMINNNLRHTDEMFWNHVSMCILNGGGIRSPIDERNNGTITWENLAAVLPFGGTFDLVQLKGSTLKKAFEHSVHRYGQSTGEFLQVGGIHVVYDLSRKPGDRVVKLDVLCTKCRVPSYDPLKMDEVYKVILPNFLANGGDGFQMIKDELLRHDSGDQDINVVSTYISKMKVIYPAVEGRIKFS
The assay is described as follows: Inhibition of ecto-5′-nucleotidase (CD73) activity in CHO-CD73 cells, phosphate colorimetric readout. The format is cell-based. The conditions noted are these: CHO-K1 cells stably transfected with human CD73, 2500 cells per well, 25 μM AMP substrate, 50 minutes incubation at 37° C.; read-out: Potency: CD73 IC50. Put shortly:
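CHO-K1 cells stably expressing human CD73 (2500/well) were incubated with compound and 25 μM AMP in HEPES-buffered saline, pH 7.4, 2% DMSO, for 50 min at 37 °C. Released phosphate was read colorimetrically at 620 nm; IC50 came from four-parameter fits of % activity versus DMSO and no-cell controls.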
`COP(=O)(O)CP(=O)(O)OC[C@H]1O[C@@H](n2cnc3c(N(C)C4CCCC4)nc(Cl)nc32)[C@@H](F)[C@@H]1O`: the IC50 was in the range of 0.1 to 1 µM.

Take `O=P(O)(O)CP(=O)(O)OC[C@H]1O[C@@H](n2ncc3c(NC4CCCC4)cc(Cl)nc32)[C@@H](F)[C@@H]1O`: the IC50 was under 0.1 µM.

For the molecule `CN(c1nc(Cl)nc2c1ncn2[C@@H]1O[C@H](COP(=O)(CP(=O)(Oc2ccc(Cl)c(Cl)c2)Oc2ccc(Cl)c(Cl)c2)Oc2ccc(Cl)c(Cl)c2)[C@@H](O)[C@H]1O)C1CCCC1` (stereo partly shown), the IC50 was over 1 µM.

In the case of `CNc1nc(Cl)nc2c1ncn2[C@@H]1O[C@H](COP(=O)(O)CP(=O)(O)O)[C@@H](O)[C@@H]1F`, the IC50 is under 0.1 µM.
